Tests used:
Type in all cases: toxicity, cell-based
[1] = system: U2OS; test: Incucyte cell viability with U2OS; conditions: human, 10 µM, compound concentration 10 uM
[2] = system: Fibroblast; test: Incucyte cell viability with human fibroblast; conditions: 10 µM, compound concentration 10 uM
[3] = system: HEK-293T; test: Incucyte cell viability with HEK293T; conditions: human, 10 µM, compound concentration 10 uM
Also: unitless GR value; below 1 slowed growth and below 0 cell loss.

SMILES | Growth Rate ([1]; 0 h, replicate number 1) | Growth Rate ([1]; 6 h, replicate number 1) | Growth Rate ([1]; 12 h, replicate number 1) | Growth Rate ([1]; 18 h, replicate number 1) | Growth Rate ([1]; 24 h, replicate number 1) | Growth Rate ([2]; 0 h, replicate number 2) | Growth Rate ([2]; 6 h, replicate number 2) | Growth Rate ([3]; 0 h, replicate number 2) | Growth Rate ([3]; 6 h, replicate number 1) | Growth Rate ([3]; 6 h, replicate number 2) | Growth Rate ([3]; 12 h, replicate number 2) | Growth Rate ([3]; 18 h, replicate number 1) | Growth Rate ([3]; 24 h, replicate number 1) | Growth Rate ([1]; 6 h, replicate number 2) | Growth Rate ([1]; 12 h, replicate number 2) | Growth Rate ([1]; 18 h, replicate number 2) | Growth Rate ([1]; 24 h, replicate number 2) | Growth Rate ([2]; 6 h, replicate number 1) | Growth Rate ([2]; 12 h, replicate number 2) | Growth Rate ([3]; 0 h, replicate number 1) | other results
CCC(=O)O[C@@H](OP(=O)(CCCCc1ccccc1)CC(=O)N1C[C@H](C2CCCCC2)C[C@H]1C(=O)[O-])C(C)C.[Na+] (stereo not given in full) | 0.02 | 0.56 | 0.78 | 0.78 | 0.77 | -0.2 | 0.94 | -1 | 0.41 | -0.23 | 0.04 | 0.77 | 0.84 | – | – | – | – | – | – | – | Growth Rate ([2]; 12 h, replicate number 1): 0.72; Growth Rate ([3]; 12 h, replicate number 1): 0.66; Growth Rate ([3]; 18 h, replicate number 2): 0.29; Growth Rate ([3]; 24 h, replicate number 2): 0.49
CCN1/C(=C/C(C)=O)Sc2ccc(OC(C)=O)cc21 | 0.39 | – | 0.91 | 1 | 0.98 | 0.08 | -0.62 | – | -0.36 | 0.16 | 0.67 | 0.02 | 0.09 | 0.95 | 0.62 | 0.94 | 0.9 | – | – | – | Growth Rate ([1]; 0 h, replicate number 2): -0.86; Growth Rate ([2]; 24 h, replicate number 1): 0.91; Growth Rate ([3]; 12 h, replicate number 1): 0.1; Growth Rate ([3]; 18 h, replicate number 2): 0.66; Growth Rate ([3]; 24 h, replicate number 2): 0.67
CCCc1c(OCCCOc2ccc(OCC(=O)O)cc2)ccc(C(C)=O)c1O | – | 0.97 | 0.84 | – | – | -0.08 | – | -0.76 | – | – | 0.94 | – | – | – | – | – | – | 0.58 | 0.87 | – | Growth Rate ([2]; 12 h, replicate number 1): 0.74; Growth Rate ([2]; 18 h, replicate number 1): 0.6; Growth Rate ([2]; 24 h, replicate number 1): 0.94; Growth Rate ([3]; 18 h, replicate number 2): 0.97
O=C(O)CCCCCC[C@@H]1C(=O)NC(=O)N1CCC(O)C1CCCCC1 (stereo not given in full) | 0.14 | 0.54 | – | – | – | 0.52 | – | 0.52 | – | – | – | – | – | 0.99 | 0.93 | 0.87 | 0.92 | -0.07 | – | -0.07 | Growth Rate ([2]; 0 h, replicate number 1): -0.99; Growth Rate ([2]; 12 h, replicate number 1): 0.61; Growth Rate ([2]; 18 h, replicate number 1): 0.69; Growth Rate ([2]; 24 h, replicate number 1): 0.75
C[C@H]1CN(C2COC2)CCN1c1ccc(Nc2cc(-c3ccnc(N4CCn5c(cc6c5CC(C)(C)C6)C4=O)c3CO)cn(C)c2=O)nc1 [FENEBRUTINIB] | – | 0.53 | 0.69 | – | 0.81 | -0.77 | – | – | 0.81 | 0.76 | – | – | – | – | 0.99 | 0.98 | 1 | 0.44 | 0.46 | – | Growth Rate ([2]; 0 h, replicate number 1): -1; Growth Rate ([2]; 18 h, replicate number 2): 0.94
CC[C@@H]1C(=O)N(C)c2cnc(Nc3ccc(C(=O)NC4CCN(C)CC4)cc3OC)nc2N1C1CCCC1 [BI-2536] | – | – | 0.69 | 0.34 | 0.08 | -0.99 | – | – | 0.45 | 0.73 | 0.08 | -0.18 | -0.17 | – | 0.59 | 0.42 | 0.3 | – | – | – | Growth Rate ([1]; 0 h, replicate number 2): 0.33; Growth Rate ([2]; 18 h, replicate number 1): 0.76; Growth Rate ([2]; 18 h, replicate number 2): 0.83; Growth Rate ([2]; 24 h, replicate number 1): 0.41; Growth Rate ([2]; 24 h, replicate number 2): 0.46; Growth Rate ([3]; 12 h, replicate number 1): -0.09; Growth Rate ([3]; 24 h, replicate number 2): -0.18
CN(C1CCc2c(c3ccccc3n2CC(=O)O)C1)S(=O)(=O)c1ccc(F)cc1 (stereo not given) | 0.71 | 0.61 | – | – | 0.87 | 0.14 | 0.23 | – | – | – | – | – | – | – | 0.9 | 0.93 | 0.92 | 0.47 | – | 0.38 | Growth Rate ([1]; 0 h, replicate number 2): 0.7; Growth Rate ([2]; 0 h, replicate number 1): -0.98; Growth Rate ([2]; 18 h, replicate number 1): 0.85; Growth Rate ([2]; 18 h, replicate number 2): 0.96; Growth Rate ([2]; 24 h, replicate number 1): 0.96
Cc1nnc2n1-c1sc3c(c1C(c1ccccc1Cl)=NC2)C[C@H](C(=O)N1CCOCC1)C3 | – | 0.8 | – | – | 0.94 | – | -0.71 | -0.35 | 0.78 | – | – | – | – | – | 0.83 | 0.93 | 0.93 | – | 0.19 | -0.2 | Growth Rate ([2]; 18 h, replicate number 2): 0.64; Growth Rate ([2]; 24 h, replicate number 2): 0.94
CC(C=CC1=C(C)CCCC1(C)C)=CC=CC(C)=CC(=O)O | 0.58 | 0.77 | 0.3 | 0.67 | 0.87 | 0.82 | 0.99 | -0.77 | – | 0.82 | 0.99 | 0.94 | 0.95 | 0.93 | – | – | 0.99 | – | 0.99 | 0.11 | Growth Rate ([1]; 0 h, replicate number 2): 0.8; Growth Rate ([3]; 18 h, replicate number 2): 0.73; Growth Rate ([3]; 24 h, replicate number 2): 0.58
Cl.Clc1ccc(OC[C@H]2CCN2)cn1 | -0.28 | -0.1 | 0.58 | 0.72 | 0.76 | – | -0.05 | – | 0.64 | 0.93 | 0.94 | 0.8 | 0.83 | 0.54 | – | 0.97 | 0.97 | -0.66 | 0.34 | 0.45 | Growth Rate ([2]; 18 h, replicate number 2): 0.83
Cl.O=S(=O)(c1cccc2c(I)cccc12)N1CCCNCC1 | -1 | – | – | – | – | – | -0.05 | – | -0.39 | – | – | 0.81 | 0.89 | 0.86 | – | – | – | -1 | 0.87 | – | Growth Rate ([2]; 24 h, replicate number 2): 0.96; Growth Rate ([3]; 12 h, replicate number 1): 0.3; Growth Rate ([3]; 24 h, replicate number 2): 0.88
COc1cc(C(=O)O)ncc1C#Cc1ccccc1NS(=O)(=O)c1cccc2c(N(C)C)ccnc12 [MSC-0516] | – | 0.68 | 0.92 | 0.8 | 0.89 | – | 0.44 | -0.98 | – | – | – | – | – | 0.86 | 0.75 | 0.91 | 0.9 | – | 0.77 | -0.31 | Growth Rate ([1]; 0 h, replicate number 2): 0.61; Growth Rate ([2]; 0 h, replicate number 1): -1; Growth Rate ([2]; 18 h, replicate number 2): 0.99; Growth Rate ([2]; 24 h, replicate number 2): 0.93

Source: ChEMBL document CHEMBL5303304, “EUbOPEN Chemogenomics Library - IncuCyte” (2023)
